Consider three compounds from PMC7830924, “Discovery of Natural Inhibitors of Cholinesterases from Hydrangea: In Vitro and In Silico Approaches” (Nutrients, 2021).

Test [1] deals with T1, BChE (Homo sapiens, UniProt P06276).
T1 construct: purchased Sigma-Aldrich
As to the kind of experiment: BChE inhibition assay and kinetic study. Type of test: biochemical. The conditions noted are these: for BChE Inhibition Type: determined by Dixon and Lineweaver–Burk plots; for IC50: mean ± S.D. of triplicate experiments, substrate butyrylthiocholine chloride; for Ki: obtained by Dixon plot. The protocol:
(§1) Cholinesterases, trypsin, chymotrypsin, elastase and BACE1, assays were performed according to the previous methods. AChE, BChE, trypsin, chymotrypsin and elastase were assayed according to the manual depicted in the reference using ACh iodide, butyrylthiocholine chloride, N-benzoyl-L-Arg-pNA, N-benzoyl-L-Tyr-pNA and N-succinyl-Ala-Ala-Ala-pNA as substrates, respectively. BACE1 assay was achieved using a Rh-[…]-Quencher as a substrate. […] The inhibitory constant (Ki) was obtained by Dixon plot, and Vmax and Km were defined by Lineweaver–Burk plots. These kinetic parameters were calculated using the SigmaPlot™ (version 12.3, Systat Software, Inc., San Jose, CA, USA).

The target in test [2] is T2, AChE (Homo sapiens, UniProt P22303).
T2 construct: purchased Sigma-Aldrich
T2 sequence (P22303 32-614): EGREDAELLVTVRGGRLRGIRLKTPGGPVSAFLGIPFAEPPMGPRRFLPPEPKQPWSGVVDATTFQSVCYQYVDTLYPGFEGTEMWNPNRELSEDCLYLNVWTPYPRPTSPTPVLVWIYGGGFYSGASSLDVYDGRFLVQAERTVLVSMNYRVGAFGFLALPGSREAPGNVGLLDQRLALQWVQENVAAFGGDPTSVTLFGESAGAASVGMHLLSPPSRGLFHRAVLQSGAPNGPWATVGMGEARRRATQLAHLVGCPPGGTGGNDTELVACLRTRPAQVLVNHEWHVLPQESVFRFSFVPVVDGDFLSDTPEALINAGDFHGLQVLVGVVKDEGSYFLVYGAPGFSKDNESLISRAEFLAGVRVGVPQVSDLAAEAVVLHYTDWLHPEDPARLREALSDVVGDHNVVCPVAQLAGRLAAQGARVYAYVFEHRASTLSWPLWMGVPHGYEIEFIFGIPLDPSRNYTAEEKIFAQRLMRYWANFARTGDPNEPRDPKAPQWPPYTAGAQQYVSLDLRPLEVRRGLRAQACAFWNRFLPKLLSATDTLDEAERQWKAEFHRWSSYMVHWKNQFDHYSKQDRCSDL
As to the kind of experiment: biochemical. The conditions noted are these: for AChE Inhibition Type: determined by Dixon and Lineweaver–Burk plots; for IC50: mean ± S.D. of triplicate experiments, substrate ACh iodide; for Ki: obtained by Dixon plot. On the procedure:
as §1

Test [3] relates to T3, BACE1.
T3 construct: purchased Pan Vera
Briefly: BACE1 FRET assay (enzyme selectivity). Type of test: biochemical. The note with it: mean ± SD of triplicate. The protocol: A beta-site APP cleaving enzyme 1 (BACE1) fluorescence resonance energy transfer (FRET) assay kit was purchased from Pan Vera (Madison, WI, USA).
as §1

Test [4] relates to Trypsin. As to the kind of experiment: Trypsin inhibition assay (enzyme selectivity). Type of test: biochemical. The note with it: mean ± SD of triplicate. On the procedure: as §1
Test [5] has as its system T4, Chymotrypsin.
T4 construct: purchased Sigma-Aldrich
As to the kind of experiment: Chymotrypsin inhibition assay (enzyme selectivity). Type of test: biochemical. The note with it: mean ± SD of triplicate. The protocol: as §1

The test system of test [6] is Elastase. As to the kind of experiment: Elastase inhibition assay (enzyme selectivity). Type of test: biochemical. The note with it: mean ± SD of triplicate. On the procedure:
as §1

T1 sequence (P06276 29-602): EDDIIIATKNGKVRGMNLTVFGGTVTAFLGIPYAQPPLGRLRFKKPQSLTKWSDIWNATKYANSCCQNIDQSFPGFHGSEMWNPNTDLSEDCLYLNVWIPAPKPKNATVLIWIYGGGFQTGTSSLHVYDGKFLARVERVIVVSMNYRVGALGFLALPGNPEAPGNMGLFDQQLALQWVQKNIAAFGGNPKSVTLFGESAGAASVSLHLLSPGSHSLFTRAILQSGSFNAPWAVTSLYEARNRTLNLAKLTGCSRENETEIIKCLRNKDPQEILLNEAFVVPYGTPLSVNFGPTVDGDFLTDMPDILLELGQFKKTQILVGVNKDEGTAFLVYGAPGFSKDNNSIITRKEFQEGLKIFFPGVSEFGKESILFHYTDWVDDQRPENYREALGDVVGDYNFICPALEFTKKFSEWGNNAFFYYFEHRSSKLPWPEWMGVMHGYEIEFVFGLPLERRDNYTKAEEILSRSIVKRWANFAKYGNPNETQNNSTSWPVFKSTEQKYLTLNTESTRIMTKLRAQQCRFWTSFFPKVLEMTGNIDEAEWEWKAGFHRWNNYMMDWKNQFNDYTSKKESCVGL

For the compound `COc1ccc2c3c1O[C@H]1C[C@@H](O)C=C[C@@]31CCN(C)C2` [Galantamine, reference compound], the “BChE Inhibition Type” value in test [1] is given as “Competitive”.

For the compound `CC(=O)OC[C@H]1O[C@@H](Oc2cccc3c2C(=O)O[C@@H](c2ccc(OC(C)=O)cc2)C3)[C@H](OC(C)=O)[C@@H](OC(C)=O)[C@@H]1OC(C)=O` [HGP, hydrangenol 8-O-glucoside pentaacetate], the “AChE Inhibition Type” value in test [2] is recorded as “Non-competitive”. Moreover, the figures for the IC50 in test [2] and in test [1] were 22.7 ± 1.63 µM and 41 ± 3.03 µM, respectively. The Ki (commonly the dissociation constant of the complex between target and ligand, obtained from inhibition or displacement) came out at 36.1 µM in test [2] and 44.9 µM in test [1]. Moreover, in test [1], the “BChE Inhibition Type” value is listed as “Non-competitive”. For the same compound, the results for the “Inhibitory activity (%) against BACE1” value in test [3] (compound 50 µM) and in test [3] (compound 100 µM) were 20.02 ± 0.52% and 25.21 ± 1.60%, respectively. Besides, the “Inhibitory activity (%) against Trypsin” value in test [4] (compound 50 µM) stood at 1.26 ± 3.36%; in test [4] (compound 100 µM), 3.12 ± 1.69%. In addition, the figures for the “Inhibitory activity (%) against Chymotrypsin” value in test [5] (compound 50 µM) and in test [5] (compound 100 µM) were 7.16 ± 3.38% and 5.15 ± 3.70%, respectively. The “Inhibitory activity (%) against Elastase” value in test [6] (compound 50 µM) was determined as 3.77 ± 1.66%; in test [6] (compound 100 µM), 1.47 ± 1.31%.

Consider `O=C1OC(c2ccc(O)cc2)Cc2cc(O)cc(O)c21` (centres unmarked) [TC, thunberginol C], for which the “AChE Inhibition Type” value in test [2] was “Non-competitive”. Besides, the IC50 (usually the concentration that gives 50% inhibition) in test [2] is 42 ± 1.06 µM; in test [1], 42.4 ± 3.67 µM. Besides, the results for the Ki in test [2] and in test [1] were 45.6 µM and 49.2 µM, respectively. For the same compound, in test [1], the “BChE Inhibition Type” value is “Non-competitive”. In addition, the “Inhibitory activity (%) against BACE1” value is 25.81 ± 3.11% in test [3] (compound 50 µM) and 28.68 ± 1.87% in test [3] (compound 100 µM). For the same compound, the “Inhibitory activity (%) against Trypsin” value in test [4] (compound 50 µM) is −0.27 ± 1.51%; in test [4] (compound 100 µM), 0.07 ± 2.00%. Also, the results for the “Inhibitory activity (%) against Chymotrypsin” value in test [5] (compound 50 µM) and in test [5] (compound 100 µM) were 6.04 ± 2.42% and 8.50 ± 1.40%, respectively. For the same compound, the “Inhibitory activity (%) against Elastase” value in test [6] (compound 50 µM) is 1.89 ± 1.09%; in test [6] (compound 100 µM) it was 0.42 ± 0.36%.
